Laboratory results published in patent US10294212B2 (CURADEV PHARMA PRIVATE LTD., priority 2013, dated 2019).

Assays:
[1] = target: Human indoleamine 2,3-dioxygenase1 (hIDO1) (Homo sapiens (Human), UniProt P14902); test: In-vitro IDO1 enzyme assay (conversion of L-tryptophan to KYN); type: biochemical; settings: read-out: IC50 (IDO1) Enz
Outline: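 Kynurenine formation quantified by HPLC absorbance at 360 nm or LC/MS/MS after TCA quench and 15 min at 65 °C. Reaction: 10 nM N-His hIDO1, 30 μM tryptophan, ascorbate/methylene blue/catalase, pH 6.5 phosphate buffer, 37 °C for 30 min. Inhibition relative to 1% DMSO vehicle, fitted to IC50.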

[2] = target: IDO1 in HeLa cells (Homo sapiens (Human), UniProt P14902); test: HeLa cell based IDO1 assay (IFNγ-induced, KYN in supernatant)
Sequence of IDO1 in HeLa cells (P14902 whole entry): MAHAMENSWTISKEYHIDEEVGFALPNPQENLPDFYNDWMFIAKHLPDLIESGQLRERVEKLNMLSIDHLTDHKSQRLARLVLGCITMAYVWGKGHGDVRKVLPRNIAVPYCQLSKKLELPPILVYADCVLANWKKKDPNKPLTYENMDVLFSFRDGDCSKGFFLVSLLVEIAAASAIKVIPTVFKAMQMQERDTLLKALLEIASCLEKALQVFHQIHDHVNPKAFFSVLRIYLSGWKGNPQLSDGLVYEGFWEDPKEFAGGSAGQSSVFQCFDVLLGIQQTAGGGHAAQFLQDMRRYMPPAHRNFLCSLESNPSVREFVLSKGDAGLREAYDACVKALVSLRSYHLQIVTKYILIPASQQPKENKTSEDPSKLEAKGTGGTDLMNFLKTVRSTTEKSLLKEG
Outline: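 Kynurenine in the supernatant, quantified by C-18 HPLC with 360 nm absorbance after TCA hydrolysis (65 °C, 15 min), was the read-out. Compounds (typically 10 μM to 1 nM) were added in HBSS containing 80 μM tryptophan to HeLa cells pre-induced overnight with 50 ng/mL IFNγ. IC50 came from nonlinear fits of % inhibition versus 1% DMSO vehicle.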

[3] = target: Human TDO (hTDO)-transfected CHO-K1 cells (Homo sapiens (Human), UniProt P48775); test: CHO-K1 cell based TDO assay; settings: hTDO cellular assay
Sequence of Human TDO (hTDO)-transfected CHO-K1 cells (P48775 whole entry): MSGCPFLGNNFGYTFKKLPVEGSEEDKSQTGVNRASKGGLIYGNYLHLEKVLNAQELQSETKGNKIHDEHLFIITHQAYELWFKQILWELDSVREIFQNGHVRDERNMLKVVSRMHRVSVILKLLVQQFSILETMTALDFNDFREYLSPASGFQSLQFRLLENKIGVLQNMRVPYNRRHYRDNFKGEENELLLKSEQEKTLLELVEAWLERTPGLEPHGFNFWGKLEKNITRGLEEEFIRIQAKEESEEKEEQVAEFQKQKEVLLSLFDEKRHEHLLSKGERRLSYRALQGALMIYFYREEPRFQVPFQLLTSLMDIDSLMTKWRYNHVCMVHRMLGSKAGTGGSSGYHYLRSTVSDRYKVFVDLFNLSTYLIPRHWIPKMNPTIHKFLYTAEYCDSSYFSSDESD
Outline: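 Kynurenine output was read by LC/MS/MS after TCA precipitation and 15 min at 65° C. Before that, CHO-K1 cells stably carrying human TDO2 were incubated 2 h with compounds (typically 31 μM to 10 nM) and 80 μM L-tryptophan in HBSS. Decrease versus DMSO vehicle gave percent inhibition, then IC50.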

[4] = system: CT-26 tumor cells; test: Antitumor activity in syngeneic CT26/Balb/C tumor model; type: in vivo, Balb/c mice; settings: 60 mg/kg oral BID, vs control animals
Description: Tumor volume reduction by the test compounds was evaluated in a syngeneic CT26/Balb/C tumor model as described below. Balb/c mice were purchased from Vivo Bio Tech, Hyderabad, India, and housed in sterile conditions using an individually ventilated caging system manufactured by Citizen Industries Limited, Ahmedabad, India. Mice were quarantined for at least 7 days before experimentation.
Mouse colorectal tumor forming cells, CT-26 cells (ATCC, USA), were cultured in DMEM and 10% FBS medium supplemented with lx non-essential amino acid (HiMedia) in an incubator maintained at 37QC with 95% humidity and 5% CO2. One million (1×10^6) live syngeneic CT-26 cells suspended in 0.2 ml of […] were injected subcutaneously in the right flank of each Balb/c mouse (age 6-8 weeks, weight: about 18-20 g) on day 1 under anesthesia. Eight to ten mice were used per experimental group. Subcutaneous cells formed localized tumors. Animals were visually inspected twice a day. Tumor measurements were initiated 7 days post injection using Vernier calipers. Tumor sizes at day 7 ranged typically from 80-150 mm^3. Tumor dimensions were subsequently measured every 3 to 4 days and tumor volume was determined. Assuming tumors to be ellipsoid, tumor volume was calculated using the formula: V=(D×d×d)/2
Where D is longest diameter in mm, and d is shortest diameter in mm.
When the average tumor volume in the mice reached 100-120 mm^3, tumor bearing mice were randomized for treatment with either test compound or vehicle alone. Test compounds were formulated generally in normal saline comprising Polyethylene Glycol (PEG400), Propylene glycol (PG) and Dimethyl Acetamide (DACM) at pH 4.5-5.0 and dosed orally at ranges 40-75 mg/kg (dose volume—5 mL/kg) twice a day. Solutions of the compounds were prepared immediately before dosing the animals. In general, tumor volume was measured at various times post-dosing from day 1 to day 34.
A non-limiting example is provided. Tumor bearing mice were dosed orally twice a day at 40 mg/kg body weight with either vehicle control or test compound 2 formulated in 30% Polyethylene Glycol (PEG-400), 20% Propylene glycol (PG) in normal saline. Tumors were measured and tumor volumes were determined at 1, 4, 6, 9, 11, and 14 days after the first dose as described above. Animals were sacrificed on day 14. Tumor and blood samples were harvested for further analysis. Just prior to animal sacrifice, blood was drawn retro-orbitally into a tube containing 0.2% EDTA for plasma collection. The harvested tumors were weighed and snap frozen in liquid nitrogen immediately. Plasma KYN concentrations are measured for pharmacokinetic analysis using LC/MS/MS using an API4000 mass spectrometer (Applied Biosystems) coupled to a Shimadzu Prominence LC system fitted with a C18 column.

Sequence of Human indoleamine 2,3-dioxygenase1 (hIDO1) (P14902 whole entry): as the sequence (P14902 whole entry) above

SMILES | IC50 [1] | IC50 [2] | IC50 [3] | reduction of tumor growth [4]
Nc1oc2c(Cl)nccc2c1Nc1ccc(F)c(Cl)c1 [Compound 166, 7-Chloro-N3-(3-chloro-4-fluorophenyl)furo[2,3-c]pyridine-2,3-diamine] | < 0.2 µM | < 0.2 µM | < 0.5 µM | 26%-38
Nc1oc2cnccc2c1Nc1ccc(F)c(C(F)(F)F)c1 [Compound 60, N^3-(4-Fluoro-3-(trifluoromethyl)phenyl)furo[2,3-c]pyridine-2,3-diamine] | < 0.2 µM | < 0.2 µM | 0.5 to 2 µM | –
Nc1oc2c(-c3cccnc3)nccc2c1Nc1ccc(F)c(Cl)c1 [Compound 94, N^3-(3-chloro-4-fluorophenyl)-7-(pyridin-3-yl)furo[2,3-c]pyridine-2,3-diamine] | < 0.2 µM | < 0.2 µM | < 0.5 µM | –
CC(C)(C)c1cc(-c2nccc3c(Nc4ccc(F)c(Cl)c4)c(N)oc23)ccn1 [Compound 259, 7-(2-(tert-Butyl)pyridin-4-yl)-N^3-(3-chloro-4-fluorophenyl)furo[2,3-c]pyridine-2,3-diamine] | < 0.2 µM | 0.2 to 1 µM | > 2 µM | –
Nc1oc2c(-c3ccccc3Cl)nccc2c1Nc1ccc(F)c(F)c1 [Compound 197, 7-(2-Chlorophenyl)-N^3-(3,4-difluorophenyl)furo[2,3-c]pyridine-2,3-diamine] | < 0.2 µM | < 0.2 µM | < 0.5 µM | –
Nc1oc2c(-c3ccncc3)nc(F)cc2c1Nc1ccc(F)c(F)c1 [Compound 188, N^3-(3,4-Difluorophenyl)-5-fluoro-7-(pyridin-4-yl)furo[2,3-c]pyridine-2,3-diamine] | < 0.2 µM | < 0.2 µM | 0.5 to 2 µM | –
Nc1oc2cnccc2c1Nc1ccccc1Cl [Compound 4, N^3-(2-Chlorophenyl)furo[2,3-c]pyridine-2,3-diamine] | > 1 µM | < 0.2 µM | > 2 µM | –
Nc1oc2c(-c3ccnc(C(=O)NC4CCCCC4)c3)nccc2c1Nc1ccc(F)c(Cl)c1 [Compound 257, 4-(2-Amino-3-((3-chloro-4-fluorophenyl)amino)furo[2,3-c]pyridin-7-yl)-N-cyclohexylpicolinamide] | < 0.2 µM | < 0.2 µM | > 2 µM | –
Cc1cccc(Nc2c(N)oc3cc(C#N)ccc23)c1 [Compound 114, 2-Amino-3-(m-tolylamino)benzofuran-6-carbonitrile] | 0.2 to 1 µM | < 0.2 µM | > 2 µM | –
COc1cc2c(Nc3ccc(F)c(Cl)c3)c(N)oc2c(-c2ccc(C#N)cc2)n1 [Compound 173, 4-(2-Amino-3-((3-chloro-4-fluorophenyl)amino)-5-methoxyfuro[2,3-c]pyridin-7-yl)benzonitrile] | < 0.2 µM | < 0.2 µM | > 2 µM | –
N#Cc1ccc2c(Nc3cccc(C(F)(F)F)c3)c(N)oc2c1 [Compound 113, 2-Amino-3-((3-(trifluoromethyl)phenyl)amino)benzofuran-6-carbonitrile] | < 0.2 µM | < 0.2 µM | 0.5 to 2 µM | –
Nc1oc2c(-c3ccnc(N4CCOCC4)c3)nccc2c1Nc1ccc(F)c(Cl)c1 [Compound 154, N^3-(3-Chloro-4-fluorophenyl)-7-(2-morpholinopyridin-4-yl)furo[2,3-c]pyridine-2,3-diamine] | < 0.2 µM | < 0.2 µM | > 2 µM | –
Nc1oc2c(-c3cccc(C(F)(F)F)c3)nccc2c1Nc1ccc(F)c(Cl)c1 [Compound 199, N^3-(3-Chloro-4-fluorophenyl)-7-(3-(trifluoromethyl)phenyl)furo[2,3-c]pyridine-2,3-diamine] | < 0.2 µM | < 0.2 µM | > 2 µM | –
